In one assay the test system is Lung cancer cell line. Nature of the assay: In vitro anticancer activity against human lung cancer cell line. The class given is functional.
The nature of assay [1]: Compound evaluated for their ability to phosphorylate eIF2R. Also on record: unit not given here. The class given is functional.

We go through 21 compounds from ChEMBL document CHEMBL1149133, “3,3-diaryl-1,3-dihydroindol-2-ones as antiproliferatives mediated by translation initiation inhibition” (2004).

Where only a bound is given, the exact number is not on record here.

By GI50 is commonly meant the concentration at which growth is held to half of that of the control.

In the assay on Lung cancer cell line, `O=C1Nc2ccc(S(=O)(=O)O)cc2C1(c1ccccc1)c1ccccc1` had a GI50 of 9 µM.
On to `O=C1Nc2ccc(F)cc2C1(c1ccccc1)c1ccccc1`, for which the Activity in assay [1] is 0.44.
With `O=C1Nc2cc(Br)ccc2C1(c1ccccc1)c1ccccc1`, the Activity in assay [1] is 0.89.
Same read-out and setting: the figure for `CC(C)(C)c1ccc(O)c(C2(c3ccccc3)C(=O)Nc3ccc(I)cc32)c1` (stereo not given) is 1.4.
In assay [1], `CC(C)(C)c1ccc(C2(c3ccc(O)cc3)C(=O)Nc3ccccc32)cc1` (stereo not given) came in with an Activity of 2.01. The same compound came in with a GI50 in the assay on Lung cancer cell line of 14 µM.
Regarding `O=C1Nc2cccc(Br)c2C1(c1ccccc1)c1ccccc1`, in assay [1], the Activity came to 0.84.
`CC(C)(C)c1ccc(O)c(C2(c3ccccc3)C(=O)Nc3ccccc32)c1` (stereo not given) yielded an Activity in assay [1] of 2. Also, the GI50 with Lung cancer cell line was 4 µM.
Consider `O=C1Nc2ccccc2C1(c1ccccc1)c1ccccc1`, for which the Activity in assay [1] was 1. In the assay on Lung cancer cell line, this compound returned a GI50 of 13 µM.
The compound `COc1ccccc1C1(c2ccccc2)C(=O)Nc2ccccc21` (stereo not given) gave an Activity in assay [1] of 0.48.
`O=C1Nc2ccc(Cl)cc2C1(c1ccccc1)c1ccccc1`: the Activity in assay [1] is 0.61.
In turn, `O=C1Nc2ccccc2C1(c1ccccc1)c1ccc(O)cc1` (stereo not given) yielded an Activity in assay [1] of 0.86.
With `CCc1ccc2c(c1)C(c1ccccc1)(c1ccccc1)C(=O)N2`, in assay [1], the Activity amounted to 0.85. The compound also showed a GI50 in the assay on Lung cancer cell line of over 20 µM.
`CC(C)(C)c1cccc(C2(c3ccccc3)C(=O)Nc3ccccc32)c1` (stereo not given) came in with an Activity in assay [1] of 1.04. Besides, in the assay with Lung cancer cell line, the 50% growth inhibitory concentration (GI50) came to 4 µM.
As for `O=C1Nc2ccccc2C1(c1ccccc1)c1ccccc1O` (stereo not given), the Activity in assay [1] turned out to be 0.56.
Compound `CN1C(=O)C(c2ccccc2)(c2ccccc2)c2ccccc21` had a GI50 in the assay with Lung cancer cell line of over 20 µM.
As to `O=C1Nc2ccc([N+](=O)[O-])cc2C1(c1ccccc1)c1ccccc1`, in assay [1], the Activity is 1.2. For the same compound, in the assay on Lung cancer cell line, growth was halved (GI50) at 14 µM.
Compound `CC(C)(C)c1ccc(C2(c3ccccc3)C(=O)Nc3ccccc32)cc1` (stereo not given) came in with an Activity in assay [1] of 0.95. Further, in the assay with Lung cancer cell line, the 50% growth inhibitory concentration (GI50) was 8 µM.
Consider `O=C1Nc2ccc(I)cc2C1(c1ccccc1)c1ccccc1`, for which the Activity in assay [1] amounted to 1.31. Further, halving of growth in the assay on Lung cancer cell line (GI50) required 8 µM.
In assay [1], `O=C1Nc2ccc(Br)cc2C1(c1ccccc1)c1ccccc1` returned an Activity of 0.79.
For `CC(C)(C)c1ccc(C2(c3ccccc3O)C(=O)Nc3ccccc32)cc1` (stereo not given), in assay [1], the Activity is 1.33. The compound also yielded a GI50 in the assay with Lung cancer cell line of 7 µM.
In the case of `COc1ccccc1C1(c2ccc(C(C)(C)C)cc2)C(=O)Nc2ccccc21` (stereo not given), in assay [1], the Activity is 0.93.
